Assays:
[1] = test system: mouse B16-F10 melanoma cultured cells; test: Hematogenous pulmonary metastasis after transplantation of mouse B16-F10 melanoma cultured cells into tail vein; type: in vivo; settings: for CI (Combination Index): Median Effect Analysis, CI below 1 = synergistic
Protocol: • (1) Preparation of mouse B16-F10 melanoma cultured cells (hereinafter simply B16-F10) B16-F10 cells (a permission to use was obtained from US M.D. Anderson Cancer Center, Dr. I. Fidler and provided for use from Japanese Foundation for cancer research·cancer chemotherapy center, Dr. […] For experiment, B16-F10 cells were suspended in MEM at 5×10^5 cells/mL and 0.2 mL thereof was transferred into the tail vein of 8-week-old male C57BL/6 mice (8 per group). […] Alzet, model 1002, flow rate […], for use for 14 days), and the osmotic pump was intraperitoneally transplanted into the mice one day before the transplantation of B16-F10 cells. • (3) As regards cisplatin, a preparation for injection (product name: Randa injection) was diluted with physiological saline and intraperitoneally administered once the day after transplantation of B16-F10 cells. As regards etoposide, a preparation for injection (product name: […] injection) was diluted with physiological saline and repeatedly administered intraperitoneally once a day for 5 days starting from one day after transplantation of B16-F10 cells. Paclitaxel was purchased from Sigma chemicals Co., suspended in 0.5% metolose solution and repeatedly administered intraperitoneally once every other day (3 times/week for 2 weeks) starting from one day after transplantation of B16-F10 cells. […] In addition, the values of combination index (CI) of the action in concomitant use analyzed by Median Effect Analysis (References and [2]) with regard to the combination group of the compound of the present invention and the anticancer agent are summarized in Table 3 and Table 6.

[2] = test system: Mouse melanoma B16-F10 cells; test: Measurement of cell growth activity (MTT), in vitro growth of B16-F10 cells; type: cell-based; settings: for CI (Combination Index): median effect analysis; for average growth suppression rate ± standard error: MTT
Protocol: Mouse melanoma B16-F10 cells (the aforementioned) were cultured in MEM supplemented with 2 mM L-glutamine, 1 mM MEM non-essential amino acids, 1% MEM vitamins, 1 mM pyruvic acid and 5% FCS, and the cells were scraped off from the culture flask every 3-4 days with a cell scraper (No. 3010, manufactured by Coaster), diluted 10-fold and maintained by subculture. In the experiment examining the effect of the test substance on the cell growth, the B16-F10 cells maintained in vitro by subculture were recovered with a cell scraper, suspended in MEM supplemented with 10% FCS at 2×10^5 cells/mL and added to a 96 well microtest plate (Becton Dickinson) at 1×10^4 cells/50 μL/well. Furthermore, 50 μL of a test substance at a 2-fold concentration of the final concentration was added to the well, and cultured in a CO2 incubator (MCO-175, SANYO Electric Co., Ltd.) at 37° C., 5% CO2 95% air for 72 hr.
After culture, 10 mg/mL of MTT [(3-[4,5-Dimethylthiazol-2-yl]-2,5-diphenyl-tetrazolium bromide)] was added at 10 μL/well, which was followed by culture for 3 hr. Thereafter, 100 μL of 10% SDS (sodium dodecylsulfate)—0.01N HCl was added to dissolve the pigment and absorbance at 570 nm was measured with a multilabel counter (1420 ARVO SX, Pharmacia Biotech Corporation). According to the concentration of the test substance, each well was expressed by absorbance, and average value and standard error. Using the well, to which the medium alone was added, as a control, the growth inhibition rate was calculated according to the following formula. [formula] Analysis method: Based on the dose reaction curves of the inventive compound alone treatment group and cisplatin alone treatment group, the combination index (CI) of the action in concomitant use is calculated by median effect analysis (References and [2]). (Results)

Compound: C[C@@H](N)c1ccc(C(=O)Nc2ccncc2)cc1.Cl [compound of the present invention, (R)-(+)-N-(4-pyridyl)-4-(1-aminoethyl)benzamide HCl]
- T/C±standard error (average number of pulmonary metastatic colonies of administration group/control group ×100) ([1]; Table 1, compound 1 mg/kg oral administration once a day for 14 days, alone): 77.1 ± 10.0%
- T/C±standard error (average number of pulmonary metastatic colonies of administration group/control group ×100) ([1]; Table 1, compound 1 mg/kg oral once a day for 14 days in combination with cisplatin 5 mg/kg intraperitoneally once): 13.4 ± 1.4%
- T/C±standard error (average number of pulmonary metastatic colonies of administration group/control group ×100) ([1]; Table 1, compound 1 mg/kg oral once a day for 14 days in combination with cisplatin 10 mg/kg intraperitoneally once, p < 0.01 vs. cisplatin (10 mg/kg) alone): 19.5 ± 3.0%
- T/C±standard error (average number of pulmonary metastatic colonies of administration group/control group ×100) ([1]; Table 1, compound 3 mg/kg oral administration once a day for 14 days, alone): 65.2 ± 3.7%
- T/C±standard error (average number of pulmonary metastatic colonies of administration group/control group ×100) ([1]; Table 1, compound 3 mg/kg oral once a day for 14 days in combination with cisplatin 5 mg/kg intraperitoneally once): 14.4 ± 2.0%
- T/C±standard error (average number of pulmonary metastatic colonies of administration group/control group ×100) ([1]; Table 1, compound 3 mg/kg oral once a day for 14 days in combination with cisplatin 10 mg/kg intraperitoneally once, p < 0.01 vs. cisplatin (10 mg/kg) alone): 16.5 ± 1.4%
- T/C±standard error (average number of pulmonary metastatic colonies of administration group/control group ×100) ([1]; Table 2, compound 0.3 mg/kg by intraperitoneal osmotic pump (14 days), alone): 73.4 ± 10.1%
- T/C±standard error (average number of pulmonary metastatic colonies of administration group/control group ×100) ([1]; Table 2, compound 0.3 mg/kg by osmotic pump in combination with cisplatin 10 mg/kg intraperitoneally once): 12.1 ± 2.1%
- T/C±standard error (average number of pulmonary metastatic colonies of administration group/control group ×100) ([1]; Table 2, compound 1 mg/kg by intraperitoneal osmotic pump (14 days), alone): 69.9 ± 7.7%
- T/C±standard error (average number of pulmonary metastatic colonies of administration group/control group ×100) ([1]; Table 2, compound 1 mg/kg by osmotic pump in combination with cisplatin 10 mg/kg intraperitoneally once): 13.0 ± 1.8%
- T/C±standard error (average number of pulmonary metastatic colonies of administration group/control group ×100) ([1]; Table 2, compound 3 mg/kg by intraperitoneal osmotic pump (14 days), alone): 63.5 ± 7.7%
- T/C±standard error (average number of pulmonary metastatic colonies of administration group/control group ×100) ([1]; Table 2, compound 3 mg/kg by osmotic pump in combination with cisplatin 10 mg/kg intraperitoneally once, P < 0.05 vs. cisplatin (10 mg/kg) alone): 11.1 ± 1.4%
- T/C±standard error (average number of pulmonary metastatic colonies of administration group/control group ×100) ([1]; Table 4, compound 1 mg/kg oral administration once a day for 14 days, alone): 83.4 ± 10.8%
- T/C±standard error (average number of pulmonary metastatic colonies of administration group/control group ×100) ([1]; Table 4, compound 1 mg/kg oral in combination with etoposide 5 mg/kg intraperitoneally once a day for 5 days, P < 0.05 vs. etoposide (5 mg/kg) alone): 22.0 ± 4.8%
- T/C±standard error (average number of pulmonary metastatic colonies of administration group/control group ×100) ([1]; Table 4, compound 3 mg/kg oral administration once a day for 14 days, alone): 70.5 ± 4.0%
- T/C±standard error (average number of pulmonary metastatic colonies of administration group/control group ×100) ([1]; Table 4, compound 3 mg/kg oral in combination with etoposide 5 mg/kg intraperitoneally once a day for 5 days, P < 0.01 vs. etoposide (5 mg/kg) alone): 19.2 ± 2.8%
- T/C±standard error (average number of pulmonary metastatic colonies of administration group/control group ×100) ([1]; Table 5, compound 1 mg/kg oral administration once a day for 14 days, alone): 69.8 ± 9.0%
- T/C±standard error (average number of pulmonary metastatic colonies of administration group/control group ×100) ([1]; Table 5, compound 1 mg/kg oral in combination with paclitaxel 5 mg/kg intraperitoneally once every other day, P < 0.05 vs. paclitaxel (5 mg/kg) alone): 20.6 ± 2.6%
- T/C±standard error (average number of pulmonary metastatic colonies of administration group/control group ×100) ([1]; Table 5, compound 3 mg/kg oral administration once a day for 14 days, alone): 59.0 ± 3.3%
- T/C±standard error (average number of pulmonary metastatic colonies of administration group/control group ×100) ([1]; Table 5, compound 3 mg/kg oral in combination with paclitaxel 5 mg/kg intraperitoneally once every other day, P < 0.01 vs. paclitaxel (5 mg/kg) alone): 16.3 ± 3.0%
- number of pulmonary metastatic colonies of B16-F10 cells ([1]; combination group with cisplatin as compared to the cisplatin alone administration group (p<0.01 or p<0.05, Dunnett's test)): significantly decreased
- number of pulmonary metastatic colonies of B16-F10 cells ([1]; combination group with etoposide as compared to the etoposide alone administration group (p<0.01 or p<0.05 Dunnett's test)): significantly decreased
- number of pulmonary metastatic colonies of B16-F10 cells ([1]; combination group with paclitaxel as compared to the paclitaxel alone administration group (p<0.01 or p<0.05 Dunnett's test)): significantly decreased
- CI (Combination Index) ([1]; compound 0.3 mg/kg osmotic pump + cisplatin 10 mg/kg): 0.19
- CI (Combination Index) ([1]; compound 1 mg/kg oral + Etoposide (5 mg/kg)): 0.42
- CI (Combination Index) ([1]; compound 1 mg/kg oral + Paclitaxel (5 mg/kg)): 0.63
- CI (Combination Index) ([1]; compound 1 mg/kg oral administration + cisplatin 10 mg/kg): 0.12
- CI (Combination Index) ([1]; compound 1 mg/kg osmotic pump + cisplatin 10 mg/kg): 0.21
- CI (Combination Index) ([1]; compound 3 mg/kg oral + Etoposide (5 mg/kg)): 0.34
- CI (Combination Index) ([1]; compound 3 mg/kg oral + Paclitaxel (5 mg/kg)): 0.34
- CI (Combination Index) ([1]; compound 3 mg/kg oral administration + cisplatin 10 mg/kg): 0.09
- CI (Combination Index) ([1]; compound 3 mg/kg osmotic pump + cisplatin 10 mg/kg): 0.17
- CI value of the action in concomitant use ([1]; compound and cisplatin used in combination, every dose (Table 3)): lower than 1
- combination index of the action in concomitant use ([1]; compound and etoposide used in combination (Table 6)): lower than 1
- combination index of the action in concomitant use ([1]; compound and paclitaxel used in combination (Table 6)): lower than 1
- CI (Combination Index) ([2]; compound 0.3 μM + cisplatin 10 μM): 0.4293
- CI (Combination Index) ([2]; compound 1 μM + cisplatin 10 μM): 0.4656
- CI (Combination Index) ([2]; compound 3 μM + cisplatin 10 μM): 0.4478
- CI (Combination Index) ([2]; compound 10 μM + cisplatin 10 μM): 0.4403
- CI (Combination Index) ([2]; compound 30 μM + cisplatin 10 μM): 0.5071
- CI (Combination Index) ([2]; compound 100 μM + cisplatin 10 μM): 0.3558
- average growth suppression rate ± standard error ([2]; compound 0.1 (no unit in Table 7; μM in Table 8) alone, 72 hr culture): 4.389 ± 3.094%
- average growth suppression rate ± standard error ([2]; compound 0.3 (no unit in Table 7; μM in Table 8) alone, 72 hr culture): 5.196 ± 0.214%
- average growth suppression rate ± standard error ([2]; compound 0.3 in combination with cisplatin 10 μM, 72 hr, NS (p = 0.1293) vs. cisplatin (10 μM) alone): 17.200 ± 11.245%
- average growth suppression rate ± standard error ([2]; compound 1 (no unit in Table 7; μM in Table 8) alone, 72 hr culture): 7.877 ± 0.727%
- average growth suppression rate ± standard error ([2]; compound 1 in combination with cisplatin 10 μM, 72 hr, NS (P = 0.1236) vs. cisplatin (10 μM) alone): 17.319 ± 4.397%
- average growth suppression rate ± standard error ([2]; compound 3 (no unit in Table 7; μM in Table 8) alone, 72 hr culture): 10.012 ± 1.459%
- average growth suppression rate ± standard error ([2]; compound 3 in combination with cisplatin 10 μM, 72 hr, p = 0.0028 vs. cisplatin (10 μM) alone): 26.406 ± 8.364%
- average growth suppression rate ± standard error ([2]; compound 10 (no unit in Table 7; μM in Table 8) alone, 72 hr culture): 10.700 ± 0.365%
- average growth suppression rate ± standard error ([2]; compound 10 in combination with cisplatin 10 μM, 72 hr, p = 0.0000 vs. cisplatin (10 μM) alone): 43.796 ± 5.446%
- average growth suppression rate ± standard error ([2]; compound 30 (no unit in Table 7; μM in Table 8) alone, 72 hr culture): 22.657 ± 4.784%
- average growth suppression rate ± standard error ([2]; compound 30 in combination with cisplatin 10 μM, 72 hr, p = 0.0000 vs. cisplatin (10 μM) alone): 90.320 ± 2.220%
- average growth suppression rate ± standard error ([2]; compound 100 (no unit in Table 7; μM in Table 8) alone, 72 hr culture): 57.960 ± 8.575%
- average growth suppression rate ± standard error ([2]; compound 100 in combination with cisplatin 10 μM, 72 hr, p = 0.0000 vs. cisplatin (10 μM) alone): 96.180 ± 0.164%

Reference: patent publication US6930115B2, “Antitumor effect potentiators” (Mitsubishi Pharma Corporation, priority 2000, dated 2005)
